#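 Protocol summary: plate cells (96-well), add compound at 5 concentrations, incubate 48 h, interpolate endpoints linearly. GI50: concentration for 50% inhibition of growth. TGI denotes the concentration required for complete inhibition of growth.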
# Key:
# Assay in all cases: growth of human tumour cells (NCI), 48 h
# BT-549 breast = system: BT-549 breast
# HCT-116 colon = system: HCT-116 colon
# HOP-62 NSCLC = system: HOP-62 NSCLC
# NCI/ADR-RES ovarian = system: NCI/ADR-RES ovarian
# OVCAR-4 ovarian = system: OVCAR-4 ovarian
# SK-OV-3 ovarian = system: SK-OV-3 ovarian
# SR leukemia = system: SR leukemia
# TK-10 renal = system: TK-10 renal
# UACC-257 melanoma = system: UACC-257 melanoma
# UO-31 renal = system: UO-31 renal
SMILES,GI50 (BT-549 breast),TGI (BT-549 breast),GI50 (HCT-116 colon),TGI (HCT-116 colon),GI50 (HOP-62 NSCLC),TGI (HOP-62 NSCLC),GI50 (NCI/ADR-RES ovarian),TGI (NCI/ADR-RES ovarian),GI50 (OVCAR-4 ovarian),TGI (OVCAR-4 ovarian),GI50 (SK-OV-3 ovarian),TGI (SK-OV-3 ovarian),GI50 (SR leukemia),TGI (SR leukemia),GI50 (TK-10 renal),TGI (TK-10 renal),TGI (UACC-257 melanoma),GI50 (UO-31 renal),TGI (UO-31 renal),GI50 (UACC-257 melanoma)
Cc1nc(N)sc1-c1ccnc(Nc2ccc(N3CCOCC3)cc2)n1,1.56 µM,> 100 µM,1.52 µM,> 100 µM,1.87 µM,60.3 µM,3.43 µM,> 100 µM,> 21.7 µM,> 100 µM,2.62 µM,> 100 µM,0.346 µM,5.39 µM,1.06 µM,8.14 µM,> 100 µM,1.28 µM,> 51.1 µM,
NC(N)=NCCN=C(N)N,,> 100 µM,,> 100 µM,,> 100 µM,,> 100 µM,,> 100 µM,,> 100 µM,,,,> 100 µM,> 100 µM,,> 100 µM,
O=[N+]([O-])c1ccc(C=C2C(Cl)=C(Cl)C(Cl)=C2Cl)cc1,4.75 µM,> 100 µM,1.79 µM,3.37 µM,1.96 µM,4.38 µM,3.05 µM,17.2 µM,2.42 µM,6.1 µM,12.1 µM,29.9 µM,2.04 µM,7.75 µM,2.41 µM,7.58 µM,,1.47 µM,3.16 µM,
Cc1ccc2c(n1)C(=O)c1[nH]c3ccccc3c1C2=O,,,,,,,2.28 µM,9.29 µM,1.13 µM,2.35 µM,4.95 µM,> 100 µM,,,12 µM,> 100 µM,2.05 µM,1.63 µM,10.7 µM,0.513 µM
NC(Cc1cccc([N+](=O)[O-])c1)C(=O)O (configuration not stated),,> 100 µM,,> 100 µM,,> 100 µM,,> 100 µM,,> 100 µM,,> 100 µM,,,,> 100 µM,> 100 µM,,> 100 µM,
COc1ccc(C2CC(c3cccc(Nc4ccncc4)c3)=NN2c2cc(Cl)cc(Cl)c2)cc1 (configuration not stated),5.57 µM,24.8 µM,,,2.08 µM,4.66 µM,1.72 µM,3.27 µM,1.67 µM,3.12 µM,11.3 µM,31.4 µM,1.53 µM,4.34 µM,,,4.92 µM,1.36 µM,2.74 µM,2.16 µM
CCC[CH2][Ge]([CH2]CCC)([CH2]CCC)[O]C(=O)CC(=O)c1ccccc1,,,0.191 µM,12.3 µM,2.2 µM,13.6 µM,,,2.49 µM,21.3 µM,0.667 µM,14 µM,0.707 µM,33.6 µM,7.03 µM,21 µM,,1.66 µM,15.9 µM,
NCCCNc1nc2ccccc2c2c(=O)c3cc(OC(F)(F)F)ccc3sc12,10.7 µM,32.6 µM,,,,,1.73 µM,3.41 µM,,,,,,,2.14 µM,3.74 µM,,1.49 µM,2.9 µM,
NNC(N)Nc1ccccc1 (configuration not stated),,> 100 µM,,,,> 100 µM,,> 100 µM,,> 100 µM,,> 100 µM,,> 100 µM,,> 100 µM,> 100 µM,,> 100 µM,
NC(CCCCP(=O)(O)O)C(=O)O (configuration not stated),,> 100 µM,,> 100 µM,,,,> 100 µM,,> 100 µM,,> 100 µM,,> 100 µM,,> 100 µM,> 100 µM,,> 100 µM,
CC1CC=CC(O)C1 (configuration not stated),,,,> 100 µM,,> 100 µM,,> 100 µM,,> 100 µM,,> 100 µM,,,,,> 100 µM,,> 100 µM,
O=C(OC(=O)n1ccc2ccccc21)n1ccc2ccccc21,,,,> 100 µM,,> 100 µM,,> 100 µM,,> 100 µM,,> 100 µM,,,,,> 100 µM,,> 100 µM,
O=NN(CCCl)C(=O)NC1CCSc2ccccc21 (configuration not stated),,,,> 100 µM,,> 100 µM,,> 100 µM,,> 100 µM,,> 100 µM,,,,,> 100 µM,,> 100 µM,
C[C@]12C=CC(=O)C=C1CC[C@H]1[C@@H]3C[C@@H](O)[C@](O)(C(=O)CO)[C@@]3(C)C[C@H](O)[C@@]12F,,,,> 100 µM,,> 100 µM,,,,> 100 µM,,> 100 µM,,> 100 µM,,> 100 µM,> 100 µM,,> 100 µM,
COc1ccccc1C1C(C(=O)O)=C(CO)Oc2cc3c(cc21)OCO3 (configuration not stated),,,,,,,,,,,,> 100 µM,,,,> 100 µM,,,> 100 µM,
Cc1ccc(S(=O)(=O)Oc2cc(-c3ccccc3)nc3ccccc23)cc1,,,,15.9 µM,,18.8 µM,,11.6 µM,,16.2 µM,,5.23 µM,,,,,52.2 µM,,35.6 µM,
CC(=O)Oc1cccc2c(/C=N/NC(N)=S)ncc(C)c12,,12.3 µM,,32.6 µM,,14.6 µM,,9.47 µM,,38.6 µM,,17.1 µM,,> 65.9 µM,,22 µM,> 41.2 µM,,4.43 µM,

# Source: PubChem BioAssay (NCI)
